Laboratory results from patent US7816535B2, “Vinyl-phenyl derivatives for inflammation and immune-related uses” (Synta Pharmaceuticals Corp., priority 2006, dated 2010).

Tested on: IL-2 production
Test: Inhibition of IL-2 production in PHA-activated Jurkat cells (ELISA)
Assay type: cell-based
Details: Homo sapiens, Jurkat, 20 h, PHA 2.5 μg/mL, IL-2 ELISA
Experimental: Jurkat cells were placed in a 96 well plate (0.5 million cells per well in 1% FBS medium) then a test compound of this invention was added at different concentrations. After 10 minutes, the cells were activated with PHA (final concentration 2.5 μg/mL) and incubated for 20 hours at 37° C. under CO2. The final volume was 200 μL. Following incubation, the cells were centrifuged and the supernatants collected and stored at −70° C. prior to assaying for IL-2 production. A commercial ELISA kit (IL-2 Eli-pair, Diaclone Research, Besancon, France) was used to detect production of IL-2, from which dose response curves were obtained. The IC50 value was calculated as the concentration at which 50% of maximum IL-2 production after stimulation was inhibited versus a non-stimulation control.

| Compound | IC50 [nM] |
| --- | --- |
| CC1=C(c2ccc(NC(=O)c3ccncc3F)cc2)CCCC1 [Compound 1, 3-Fluoro-N-[4-(2-methyl-cyclohex-1-enyl)-phenyl]-isonicotinamide] | 84 |
| C=C(C)[C@@H]1CCC(C)=C(c2ccc(NC(=O)c3ccncc3C)cc2)C1 [Compound 2, 3-Methyl-N-[4-(2-methyl-5(R)-isopropenyl-cyclohex-1-enyl)-phenyl]-isonicotinamide] | 11 |
| C=C(C)[C@H]1CCC(C)=C(c2ccc(NC(=O)c3ccncc3C)cc2)C1 [Compound 3, 3-Methyl-N-[4-(2-methyl-5(S)-isopropenyl-cyclohex-1-enyl)-phenyl]-isonicotinamide] | 9 |
| C=C(C)[C@@H]1CCC(C)=C(c2ccc(NC(=O)c3ccncc3F)cc2)C1 [Compound 4, 3-Fluoro-N-[4-(2-methyl-5(R)-isopropenyl-cyclohex-1-enyl)-phenyl]-isonicotinamide] | 7 |
| C=C(C)[C@H]1CCC(C)=C(c2ccc(NC(=O)c3ccncc3F)nc2)C1 [Compound 5] | 13.9 |
| CC(=O)[C@@H]1CCC(C)=C(c2ccc(NC(=O)c3ccncc3C)cc2)C1 [Compound 6, 3-Methyl-N-[4-(2-methyl-5(R)-acetyl-cyclohex-1-enyl)-phenyl]-isonicotinamide] | 68 |
| CCOC(=O)N1C=C(c2ccc(NC(=O)c3c(F)cccc3F)cc2)C(C)CC1 (stereo not drawn) [Compound 8, 5-[4-(2,6-difluoro-benzoylamino)-phenyl]-4-methyl-2,4-dihydro-2H-pyridine-1-carboxylic acid ethyl ester] | 95 |
| CC1=C(c2ccc(NC(=O)c3ccncc3C)cc2)C[C@@H]([C@@](C)(O)CO)CC1 [Compound 9, N-(4-((S)-5-((R)-1,2-dihydroxypropan-2-yl)-2-methylcyclohex-1-enyl)phenyl)-3-methylisonicotinamide] | 748 |
| CC1=C(c2ccc(NC(=O)c3c(F)cccc3F)cc2)CN(C)CC1 [Compound 10, N-(4-(1,4-dimethyl-1,2,5,6-tetrahydropyridin-3-yl)phenyl)-2,6-difluorobenzamide] | > 1000 |
| CC1=C(c2ccc(NC(=O)c3c(F)cccc3F)cc2)CN(Cc2ccccc2)CC1 [Compound 11, N-(4-(1-benzyl-4-methyl-1,2,5,6-tetrahydropyridin-3-yl)phenyl)-2,6-difluorobenzamide] | > 1000 |
| CCOC(=O)N1CCC(C)=C(c2ccc(NC(=O)c3c(F)cccc3F)cc2)C1 [Compound 12, Ethyl 3-(4-(2,6-difluorobenzamido)phenyl)-4-methyl-5,6-dihydropyridine-1(2H)-carboxylate] | 23 |
| CC(C)=C(C)c1ccc(NC(=O)c2ccncc2F)cc1 [Compound 13, 3-Fluoro-N-(4-(3-methylbut-2-en-2-yl)phenyl)-isonicotinamide] | 382 |
| CC(C)=C(c1ccccc1)c1ccc(NC(=O)c2ccncc2C)cc1 [Compound 14, 3-Methyl-N-(4-(2-methyl-1-phenylprop-1-enyl)phenyl)-isonicotinamide] | 159 |
| CCOC(=O)N1CCC(c2ccc(NC(=O)c3c(F)cccc3F)cc2)=C(C)C1 [Compound 16, Ethyl 4-(4-(2,6-difluorobenzamido)phenyl)-3-methyl-5,6-dihydropyridine-1(2H)-carboxylate] | 24.6 |
| O=C(Nc1ccc(C2=CCCCC2)cc1)c1ccncc1F [Compound 18, N-(4-Cyclohexenylphenyl)-3-fluoroisonicotinamide] | > 1000 |
| O=C(Nc1ccc(C2=C(Cl)CCCC2)cc1)c1c(F)cccc1F [Compound 21, N-[4-(2-chloro-cyclohex-1-enyl)-phenyl]-2,6-difluoro-benzamide] | 23.2 |
| O=C(Nc1ccc(C2=C(CO)CCCC2)cc1)c1c(F)cccc1F [Compound 22, N-[4-(2-hydroxymethyl-cyclohex-1-enyl)-phenyl]-2,6-difluoro-benzamide] | 721 |
| O=C(Nc1ccc(C2=C(c3cnco3)CCCC2)cc1)c1c(F)cccc1F [Compound 23, N-[4-(2-oxazol-5-yl-cyclohex-1-enyl)-phenyl]-2,6-difluoro-benzamide] | 7.4 |
| O=C(Nc1ccc(C2=C(c3cnco3)CCCC2)cc1)c1ccncc1F [Compound 24, N-[4-(2-oxazol-5-yl-cyclohexen-1-yl)-phenyl]-3-fluoroisonicotinamide] | 68 |
| CC1=C(c2ccc(NC(=O)c3c(F)cccc3F)cc2)CCCC1 [Compound 25, N-[4-(2-methyl-cyclohex-1-enyl)-phenyl]-2,6-difluoro-benzamide] | 7.2 |

| Compound | IC50 [nM] |
| --- | --- |
| CC1=C(c2ccc(NC(=O)c3ncncc3C)cc2)CCCC1 [Compound 26, 5-Methyl-pyrimidine-4-carboxylic acid [4-(2-methyl-cyclohex-1-enyl)-phenyl]-amide] | 165 |
| CC1=C(c2ccc(NC(=O)c3cncnc3C)cc2)CCCC1 [Compound 27, 4-Methyl-pyrimidine-5-carboxylic acid [4-(2-methyl-cyclohex-1-enyl)-phenyl]-amide] | 38.9 |
| CC1=C(c2ccc(NC(=O)c3scnc3Cl)cc2)CCCC1 [Compound 28, 4-Chloro-thiazole-5-carboxylic acid [4-(2-methyl-cyclohex-1-enyl)-phenyl]-amide] | 143 |
| CCC1=C(c2ccc(NC(=O)c3c(F)cccc3F)cc2)CCCC1 [Compound 29, N-[4-(2-ethyl-cyclohex-1-enyl)-phenyl]-2,6-difluoro-benzamide] | 17.4 |
| CCOC(=O)C1=C(c2ccc(NC(=O)c3c(F)cccc3F)cc2)CCC1 [Compound 30, 2-[4-(2,6-Difluoro-benzoylamino)phenyl]-cyclopent-1-enecarboxylic acid ethyl ester] | 300 |
| O=C(Nc1ccc(C2=C(CO)CCC2)cc1)c1c(F)cccc1F [Compound 31, 2,6-Difluoro-N-[4-(2-hydroxymethyl-cyclopent-1-enyl)-phenyl]-benzamide] | > 1000 |
| O=CC1=C(c2ccc(NC(=O)c3c(F)cccc3F)cc2)CCC1 [Compound 32, 2,6-Difluoro-N-[4-(2-formyl-cyclopent-1-enyl)-phenyl]-benzamide] | > 1000 |
| C=CC1=C(c2ccc(NC(=O)c3c(F)cccc3F)cc2)CCC1 [Compound 33, 2,6-Difluoro-N-[4-(2-vinyl-cyclopent-1-enyl)-phenyl]-benzamide] | 97.1 |
| O=C(Nc1ccc(C2=C(c3cnco3)CCC2)cc1)c1c(F)cccc1F [Compound 34, 2,6-Difluoro-N-[4-(2-oxazol-5-yl-cyclopent-1-enyl)-phenyl]-benzamide] | 20.5 |
| COC(=O)C1=C(c2ccc(NC(=O)c3c(F)cccc3F)cc2)CCCCC1 [Compound 35, 2,6-Difluoro-N-[4-(2-methoxycarbonyl-cyclohept-1-enyl)-phenyl]-benzamide] | 104 |
| O=C(Nc1ccc(C2=C(CO)CCCCC2)cc1)c1c(F)cccc1F [Compound 36, 2,6-Difluoro-N-[4-(2-hydroxymethyl-cyclohept-1-enyl)-phenyl]-benzamide] | > 1000 |
| O=CC1=C(c2ccc(NC(=O)c3c(F)cccc3F)cc2)CCCCC1 [Compound 37, 2,6-Difluoro-N-[4-(2-formyl-cyclohept-1-enyl)-phenyl]-benzamide] | 774 |
| O=C(Nc1ccc(C2=C(c3cnco3)CCCCC2)cc1)c1c(F)cccc1F [Compound 38] | 23.1 |
| CCOC(=O)C1=C(c2ccc(NC(=O)c3c(F)cccc3F)cc2)CCN(C(=O)OC)CC1 [Compound 39, 2,6-Difluoro-N-[4-(1-methoxycarboxyl-5-ethoxycarbonyl-2,3,6,7-tetrahydro-1H-azepin-4-yl)-phenyl]-benzamide] | 380 |
| C=CC1=C(c2ccc(NC(=O)c3c(F)cccc3F)cc2)CCN(C(=O)OC)CC1 [Compound 40, 2,6-Difluoro-N-[4-(1-methoxycarbonyl-5-vinyl-2,3,6,7-tetrahydro-1H-azepin-4-yl)-phenyl]-benzamide] | 22.8 |
| COC(=O)N1CCC(c2nccs2)=C(c2ccc(NC(=O)c3c(F)cccc3F)cc2)C1 [Compound 41, 2,6-Difluoro-N-[4-(1-methoxycarbonyl-4-thiazol-2-yl-1,2,5,6-tetrahydro-pyridin-3-yl)-phenyl]-benzamide] | 308 |
| COC(=O)N1CCC(C(C)C)=C(c2ccc(NC(=O)c3c(F)cccc3F)cc2)C1 [Compound 42, 2,6-Difluoro-N-[4-(1-methoxycarbonyl-4-isopropyl-1,2,5,6-tetrahydro-pyridin-3-yl)-phenyl]-benzamide] | 11.9 |
| CC1=C(c2ccc(NC(=O)c3c(F)cccc3F)cc2)CN(c2nccs2)CC1 [Compound 44, 2,6-Difluoro-N-[4-(1-thiazol-2-yl-4-methyl-1,2,5,6-tetrahydro-pyridin-3-yl)-phenyl]-benzamide] | 12 |
| COC(=O)N1CCC(C)=C(c2ccc(NC(=O)c3ccncc3F)cc2)C1 [Compound 45, N-[4-(1-methoxycarbonyl-4-methyl-1,2,5,6-tetrahydro-pyridin-3-yl)-phenyl]-3-fluoro-isonicotinamide] | 248 |

Same assay, conditions: Homo sapiens, PHA 2.5 μg/mL, 20 hours, IL-2 ELISA

| Compound | IC50 [nM] |
| --- | --- |
| CC1=C(c2ccc(NC(=O)c3c(F)cccc3F)cc2)CCN(C)C1 [Compound 15, N-(4-(1,5-Dimethyl-1,2,3,6-tetrahydropyridin-4-yl)phenyl)-2,6-difluorobenzamide] | > 1000 |
| CC1=C(c2ccc(NC(=O)c3c(F)cccc3F)cc2)CCNC1 [Compound 17, 2,6-Difluoro-N-(4-(5-methyl-1,2,3,6-tetrahydropyridin-4-yl)phenyl)benzamide] | > 1000 |
| CC1=C(c2ccc(NC(=O)c3c(F)cccc3F)cc2)CCN(Cc2ccccc2)C1 [Compound 19, N-(4-(1-benzyl-5-methyl-1,2,3,6-tetrahydropyridin-4-yl)phenyl)-2,6-difluorobenzamide] | 513 |
